In patent US10052304B2, “Compositions and methods for cancer therapy” (UNIVERSITY OF IOWA RESEARCH FOUNDATION, priority 2015, dated 2018):
Entries after “also recorded” stand apart in the source; their conditions may differ.

Assays:
U118 cells = experiment: Clonogenic survival assay, U118 GBM cells; type: cell-based, human
Experimental: (§1) Treatment conditions for individual experiments are as described in the figure legends and summarized in the Supplemental Experimental Procedures.
(§2) 1-2×10^5 cells were plated in 60 mm cell culture dishes and grown in their respective media for 48 h before exposed to experimental conditions. […] For AdGPx1 experiments, cells were supplemented with 50 nM sodium selenite following transduction and throughout clonogenic growth. […] After treatment, cells were washed with PBS and clonogenic assay was completed in their respective media. Briefly, floating and attached cells were collected and total cells per plate were counted. An experimentally derived number of cells were plated into each well of a 6-well cell culture plate in their respective media. For HEL92.1.7 suspension cells, cells were seeded in a top layer of 0.4% (w/v) agarose to allow for quantifiable colony formation. […] Normalized survival fractions were calculated by comparing plating efficiencies of each treatment group against the control group within a given experiment.

[1] = IV delivery; cited from earlier work
[2] = system: advanced stage NSCLC patients; experiment: Phase II clinical trial of pharmacological ascorbate with carboplatin and paclitaxel in advanced stage NSCLC; type: in vivo, human
Experimental: This phase II clinical trial was registered with clinicaltrials.gov (NCT 02420314) prior to enrollment of the first subject. Newly diagnosed advanced stage NSCLC patients were invited to participate.
Whole blood was collected from patients around infusions.
(§3) We have not seen any unexpected or unusual increase in Grade 3/4 toxicities as compared to previously published literature, although it remains too early for a direct comparison. Responses to therapy were determined per RECIST 1.1 criteria (Eisenhauer et al., 2009). Currently, four of six patients have completed the trial with imaging-confirmed partial responses to therapy. […] Finally, one patient progressed with a new spinal lesion, although the target lesions are stable; this patient has been transitioned off of the trial.
as §3, with “This phase II clinical trial was registered with clinicaltrials.gov (NCT 02420314) prior to enrollment of the first subject. Newly diagnosed advanced stage NSCLC patients were invited to participate. […] We” for “We”, “a total” for “four”, “eleven subjects have been recruited to the trial, seven of which are currently evaluable for response. Five of seven” for “six”

NCI-H292 xenografts = system: NCI-H292 xenografts
Experimental: Nude mice were injected with NCI-H292 cells into their flanks and tumors grown to a diameter of 2-4 mm.
(§4) Female 4-6 week old female athymic-nu/nu mice were purchased from Envigo (previously Harlan Laboratories) and housed in the Animal Care Facility at the University of Iowa (Iowa City, Iowa), and all procedures were approved by the University of Iowa Institutional Animal Care and Use Committee and conformed to NIH guidelines. 1×10^6 H292 or U87 cells were injected subcutaneously into the right rear flank and mice were euthanized and sacrificed when tumor length exceeded 1.5 cm in any dimension. Treatment regimens were as described in the text and are summarized in the Supplemental Experimental Procedures.
as §4, with “flank. […] Tumors were measured every other day with Vernier calipers (volume=(length×width×(width/2))” for “flank”, “dimension.” for “dimension. Treatment regimens were as described in the text and are summarized in the Supplemental Experimental Procedures.”

NHA = details: 1 h ascorbate + 25 μM temozolomide + 2 Gy IR
Experimental: (§5) After treatment, cells were washed with PBS and clonogenic assay was completed in their respective media as previously described (Fath et al., 2011). Treatment conditions for individual experiments are as described in the figure legends and summarized in the Supplemental Experimental Procedures.
as §2, with “formation. After sufficient time (7-12 days, cell type-dependent), cells were fixed in 70% ethanol and stained with a Brilliant Blue methanol solution.” for “formation.”

HBEpC = details: 1 h ascorbate + 5 μM carboplatin + 2 Gy IR
Experimental: as §5
as §2, with “formation. After sufficient time (7-12 days, cell type-dependent), cells were fixed in 70% ethanol and stained with a Brilliant Blue methanol solution.” for “formation.”

H1299 cells = experiment: Clonogenic survival assay, H1299 NSCLC cells; type: cell-based, human
Experimental: as §1, §2

ARP1 myeloma cells = experiment: ARP1 myeloma tumor-bearing model, IP injection, NOD-SCID mice; type: in vivo; details: ascorbate 4 g/kg approximately 15 days, n=3
Experimental: This experiment was repeated in a tumor-bearing mouse model through IP injection of ARP1 myeloma cells, which allows a solid tumor growth when implanted in mice purpose. A total of […] ARP1 MM cells (in 50 μl PBS) per mouse were injected into NOD-SCID mice through IP.

[3] = Ascorbate quantification in mouse plasma, tumor and CSF after IP ascorbate; type: in vivo, mice
Experimental: Tumor xenografts were excised and flash frozen in liquid nitrogen until analysis. Mouse whole blood was collected by cardiac puncture, and plasma was collected after the sample was centrifuged at 500 g for 10 min and frozen until analysis. For patient samples, whole blood was collected from clinical trial patients (NaHeparin 75 USP units, BD Vacutainer® green top blood collection tube, 4 mL), and plasma was collected after centrifugation at 500 g for 10 min and aliquoted and stored at −80° C. until analysis.
Tumor xenografts were excised and flash frozen in liquid nitrogen until analysis. Mouse whole blood was collected by cardiac puncture, and plasma was collected after the sample was centrifuged at 500 g for 10 min and frozen until analysis. For patient samples, whole blood was collected from clinical trial patients (NaHeparin 75 USP units, BD Vacutainer® green top blood collection tube, 4 mL), and plasma was collected after centrifugation at 500 g for 10 min and aliquoted and stored at −80° C. until analysis. […] Briefly, samples were extracted in a buffer containing 90% methanol and 10% water with 250 μM DETAPAC (90:10, v/v), mixed, and incubated on ice for 10 min to precipitate protein. The samples were clarified by centrifugation (16 g, 10 min) with an Eppendorf model 5415D Microfuge. Specifically, samples were diluted at a ratio of 50 μL of plasma to 450 μL extraction buffer. These samples were then further diluted another 77.5 to 105-fold (therefore, 775-1,050 fold overall) in a buffer containing 72% methanol and 28% water with 250 μM DETAPAC (72:28, v/v). […] This protocol ensured that all samples had identical methanol content which is critical for accurate quantification (Vislisel et al., 2007). 100 μL aliquots of the samples or standards were placed in 96-well optical bottom black plates (Thermo Fisher Scientific, Rochester, N.Y., USA). The assay was initiated at room temperature by adding 100 μL of 2.3 mM 4-hydroxy-2,2,6,6-tetramethylpiperidinyloxyl (Tempol) in 2 M sodium acetate trihydrate buffer previously adjusted to pH 5.5 with acetic acid. […] Subsequently, 42 μL of 5.5 mM ortho-phenylenediamine (oPDA) in 2 M sodium acetate buffer (pH 5.5) was added to the samples. Kinetic measurements were immediately initiated and collected every 22 s using a TECAN SpectraFluor Plus plate reader (Tecan, Research Triangle Park, N.C., USA) for the fluorescent condensation product of the reaction of oPDA with DHA (3-dihydroxyethyl)furo[3,4-b]quinoxaline-1-one; λex=345 nm, λem=425 nm). […] Briefly, plasma samples were measured spectrophotometrically (265 nm; ε=13,000 M-1 cm-1) using an Implen Nanophotometer P-330 with a 250× dilution lid, path length=4.00×10-3 cm. The blank for each sample was a pair-‘pre-infusion’ plasma sample, which allowed removal of the background absorbance of plasma proteins and other constituents.
Briefly, mice were anesthetized (17.5 mg ml^−1 ketamine/2.5 mg ml^−1 xylazine mixture), restrained in a stereotaxic frame with an acute head angle, and the dura mater covering the foramen magnum was surgically exposed. CSF was collected by capillary action following minimal puncture of the dura mater and frozen until EPR analysis. Ascorbyl radical EPR spectra were obtained by placing the capillary tube into the bottom of a 250 mm×3 mm (ID) thin walled quartz EPR tube (707-SQ-250M Wilmad-Lab Glass, Vineland, N.J.) centered in a Bruker HS EPR cavity (Bruker, Billerica, Mass.). […]

[4] = first six patients, ascorbate 75 g twice weekly + carboplatin/paclitaxel
[5] = Example 1: two hours after last radiation treatment, 4 g/kg IP
[6] = Example 4: 1 h after IP ascorbate 4 g kg^−1, H292 xenograft mice

O=C1O[C@H]([C@@H](O)CO)C(O)=C1O [ascorbate, L-ascorbic acid]
sensitization to temozolomide + IR (clonogenic survival) (U118 cells; 1 h ascorbate + 25 μM temozolomide + 2 Gy IR): selectively sensitized | clonogenic survival / cell killing (U118 cells; ascorbate alone, increasing concentrations, 1 h): dose-dependent clonogenic cell killing | serum ascorbate concentration achieved (effective therapeutic level) [1]: ≈ 20 mM | patient plasma ascorbate level ([2]; after 75 g IV infusions): 16.4 ± 0.5 mM | patients with imaging-confirmed partial responses (RECIST 1.1) ([2]; ascorbate + carboplatin/paclitaxel, evaluable patients to date): four of six; also recorded: Five of seven | disease control rate [2, 4]: 83% | objective response rate [2, 4]: 67% | grade 3/4 toxicities attributed to ascorbate ([2]; through 134 total infusions): no grade 3/4 toxicities attributed to ascorbate | survival of xenograft-bearing mice (NCI-H292 xenografts; Example 1: ascorbate 4 g/kg IP daily + 12 Gy/6fx IR + weekly 15 mg/kg carboplatin vs chemo-radiation alone): survived significantly longer | tolerability (lack of weight loss) (NCI-H292 xenografts; Example 1: ascorbate 4 g/kg IP daily, alone or with chemo-radiation): well-tolerated | tolerability (mouse weight) (NCI-H292 xenografts; Example 4: ascorbate 4 g kg^−1 IP daily): well tolerated | overall survival (NCI-H292 xenografts; Example 4: ascorbate 4 g kg^−1 IP daily + 12 Gy IR/2 fractions + weekly 15 mg kg^−1 CPL): significantly increased overall survival | sensitization to temozolomide + IR (clonogenic survival) (NHA): not | sensitization to carboplatin + IR (clonogenic survival) (HBEpC): not | sensitization to carboplatin + IR (clonogenic survival) (H1299 cells; 1 h ascorbate + 5 μM carboplatin + 2 Gy IR vs Carbo+IR alone): significantly increased sensitivity to Carbo+IR; also recorded: selectively sensitized | clonogenic survival / cell killing (H1299 cells; ascorbate alone, 1 h exposure): more clonogenic cell killing in NSCLC cell lines than chemotherapy plus radiation; also recorded: dose-dependent clonogenic cell killing | final tumor volume (ARP1 myeloma cells): 50±30 mm3 | plasma ascorbate concentration vs non-ascorbate treated mice [3, 5]: significantly higher | tumor ascorbate concentration vs non-ascorbate treated mice [3, 5]: significantly higher | ascorbate level in plasma [3, 6]: significantly increased ascorbate levels | ascorbate level in tumor [3, 6]: significantly increased ascorbate levels | ascorbate level in cerebrospinal fluid (ascorbyl radical EPR) ([3]; Example 4: 1 h after IP ascorbate 4 g kg^−1, healthy nude mice): significantly increased ascorbate levels
